Measurements published in patent US9062057B2, “CCR5 antagonists for treating HIV” (Purdue Research Foundation, priority 2010, dated 2015).

Target: CCR5 chemokine receptor (Homo sapiens, UniProt P51681)
Assay: Inhibition Data (IC50; no method described)
Conditions: assay not described, read-out: Activity (*) (IC50 class)

CCR5 chemokine receptor, sequence (P51681 whole entry): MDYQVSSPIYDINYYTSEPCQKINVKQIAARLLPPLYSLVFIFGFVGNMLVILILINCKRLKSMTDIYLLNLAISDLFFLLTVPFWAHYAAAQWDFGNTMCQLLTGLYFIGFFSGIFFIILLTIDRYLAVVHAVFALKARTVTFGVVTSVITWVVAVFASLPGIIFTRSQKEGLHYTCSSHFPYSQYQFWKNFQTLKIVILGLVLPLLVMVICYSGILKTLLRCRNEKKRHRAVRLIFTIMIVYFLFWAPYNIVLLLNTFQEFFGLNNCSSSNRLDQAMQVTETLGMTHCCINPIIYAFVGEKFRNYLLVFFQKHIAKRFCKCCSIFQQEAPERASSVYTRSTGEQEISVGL

IC50 [µM]	SMILES
< 1	CN1N=C2CCN(CC[C@](C)(CN(C)S(=O)(=O)c3ccccc3)c3ccccc3)CC2(Cc2ccccc2)C1=O (some centres unmarked) [Example 52]
< 1	COC(=O)[C@@H](CCSC)NC(=O)C1CCN(CC[C@](C)(CN(C)S(=O)(=O)c2ccccc2)c2ccccc2)CC1 [Example 56]
< 1	CN(C[C@@](C)(CCN1CCC2(CC1)CCN(C(=O)OC(C)(C)C)C2)c1ccccc1)S(=O)(=O)c1ccccc1 [Example 58]
< 1	CN(C[C@@](C)(CCN1CC2CN(C(=O)OC(C)(C)C)[C@H]2C1)c1ccccc1)S(=O)(=O)c1ccccc1 (some centres unmarked) [Example 64]
< 1	CN(C[C@@](C)(CCN1CCC2(CCCN2C(=O)OC(C)(C)C)CC1)c1ccccc1)S(=O)(=O)c1ccccc1 [Example 65]
< 1	CN(C[C@@](C)(CCNC1C2CCC1CN(C(=O)OC(C)(C)C)C2)c1ccccc1)S(=O)(=O)c1ccccc1 (some centres unmarked) [Example 66]
< 1	CN(C[C@@](C)(CCNC1CC2CCC(C1)N2C(=O)OC(C)(C)C)c1ccccc1)S(=O)(=O)c1ccccc1 (some centres unmarked) [Example 67]
< 1	CN(C[C@@](C)(CCN1CC[C@H]2CNC(=O)[C@H]2C1)c1ccccc1)S(=O)(=O)c1ccccc1 [Example 69]
< 1	CN(C[C@@](C)(CCN1C2CCC1CC(NC(=O)OC(C)(C)C)C2)c1ccccc1)S(=O)(=O)c1ccccc1 (some centres unmarked) [Example 70]
< 1	CN(C[C@@](C)(CCN1CC[C@H]2OC(C)(C)O[C@H]2C1)c1ccccc1)S(=O)(=O)c1ccccc1 [Example 71]
< 1	CC(C)[C@H](NC(=O)OCc1ccccc1)C(=O)N1CC2CN(C(=O)OC(C)(C)C)CC[C@H]2C1 (some centres unmarked) [Example 72]
< 1	CC(C)(C)OC(=O)N1CC[C@H]2CN(C(=O)O[C@H]3CCOC3)C[C@H]2C1 [Example 74]
< 1	CN(C[C@@](C)(CCN1CC[C@H]2CN(C(=O)OCc3ccccc3)C[C@H]2C1)c1ccccc1)S(=O)(=O)c1ccccc1 [Example 75]
< 1	CN(C[C@@](C)(CCN1CC[C@H]2CN(C(N)=O)C[C@H]2C1)c1ccccc1)S(=O)(=O)c1ccccc1 [Example 76]
< 1	CN(C[C@@](C)(CCN1CCc2[nH][nH]c(=O)c2C1)c1ccccc1)S(=O)(=O)c1ccccc1 [Example 78]
< 1	C[C@H](NC(=O)N1CC2CN(CC[C@](C)(CN(C)S(=O)(=O)c3ccccc3)c3ccccc3)CC[C@H]2C1)c1cccc2ccccc12 (some centres unmarked) [Example 79]
< 0.1	Cc1nnc(C2CO[C@H]3OCCC23)n1C1CC2CCC(C1)N2CC[C@H](NC(=O)OCc1ccccc1)c1ccccc1 (some centres unmarked) [Example 80]
< 1	Cc1nnc(C2CO[C@H]3OCCC23)n1C1CC2CCC(C1)N2CC[C@H](NS(=O)(=O)c1ccc2c(c1)OCO2)c1ccccc1 (some centres unmarked) [Example 81]
< 1	Cc1nnc(C2CO[C@H]3OCCC23)n1C1CC2CCC(C1)N2CC[C@H](N)c1ccccc1 (some centres unmarked) [Example 82]
< 1	Cc1ccc(S(=O)(=O)N[C@@H](CCN2C3CCC2CC(n2c(C)nnc2C2CO[C@H]4OCCC24)C3)c2ccccc2)cc1 (some centres unmarked) [Example 83]
